“And” between values parts separate entries of the source, which are not always exact repeats. Equal values may be shown once. Inconclusive results and toxic doses are left out.
System: BDF1 mice, B16 melanoma ip, median survival T/C
Assay: NCI In Vivo Anticancer Drug Screen. Data for tumor model B16 Melanoma (intraperitoneal) in B6D2F1 (BDF1) mice
Settings: endpoint: median survival time, higher = longer survival
Summary of the method: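 Tumor-bearing mice received test compound or vehicle. Survival or tumor size was then measured in both groups. The treated-group figure was divided by the control-group figure.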

[1] = dose: 12.5 mg/kg/injection, schedule: Q04DX003 (ip), vehicle: saline
[2] = dose: 25.0 mg/kg/injection, schedule: Q04DX003 (ip), vehicle: saline
[3] = dose: 50.0 mg/kg/injection, schedule: Q01DX009 (ip), vehicle: saline
[4] = dose: 50.0 mg/kg/injection, schedule: Q04DX003 (ip), vehicle: saline
[5] = dose: 100.0 mg/kg/injection, schedule: Q01DX009 (ip), vehicle: saline
[6] = dose: 100.0 mg/kg/injection, schedule: Q04DX003 (ip), vehicle: saline
[7] = dose: 200.0 mg/kg/injection, schedule: Q01DX009 (ip), vehicle: saline
[8] = dose: 200.0 mg/kg/injection, schedule: Q04DX003 (ip), vehicle: saline
[9] = dose: 400.0 mg/kg/injection, schedule: Q04DX003 (ip), vehicle: saline
[10] = dose: 25.0 mg/kg/injection, schedule: Q01DX009 (ip), vehicle: Klucel (hydroxypropylcellulose) (HPC)
[11] = dose: 50.0 mg/kg/injection, schedule: Q01DX009 (ip), vehicle: Klucel (hydroxypropylcellulose) (HPC)
[12] = dose: 100.0 mg/kg/injection, schedule: Q01DX009 (ip), vehicle: Klucel (hydroxypropylcellulose) (HPC)
[13] = dose: 25.0 mg/kg/injection, schedule: Q01DX009 (ip), vehicle: saline with Tween-80
[14] = dose: 50.0 mg/kg/injection, schedule: Q01DX009 (ip), vehicle: saline with Tween-80
[15] = dose: 100.0 mg/kg/injection, schedule: Q01DX009 (ip), vehicle: saline with Tween-80
[16] = dose: 200.0 mg/kg/injection, schedule: Q01DX009 (ip), vehicle: saline with Tween-80
[17] = dose: 50.0 mg/kg/injection, schedule: Q04DX003 (ip), vehicle: saline with Tween-80
[18] = dose: 100.0 mg/kg/injection, schedule: Q04DX003 (ip), vehicle: saline with Tween-80
[19] = dose: 200.0 mg/kg/injection, schedule: Q04DX003 (ip), vehicle: saline with Tween-80
[20] = dose: 12.5 mg/kg/injection, schedule: Q01DX009 (ip), vehicle: Klucel (hydroxypropylcellulose) (HPC)
[21] = dose: 200.0 mg/kg/injection, schedule: Q01DX009 (ip), vehicle: Klucel (hydroxypropylcellulose) (HPC)
[22] = dose: 400.0 mg/kg/injection, schedule: Q01DX009 (ip), vehicle: Klucel (hydroxypropylcellulose) (HPC)

Compound: COc1cccc2c1C(=O)c1c(O)c3c(c(O)c1C2=O)C[C@@](O)(C(=O)CO)C[C@@H]3OC1CC(N(C)C)C(O)C(C)O1 (stereo not given in full)
- T/C (dose: 0.63 mg/kg/injection, schedule: Q01DX001 (ip), vehicle: water): 119 % of control
- T/C (dose: 1.73 mg/kg/injection, schedule: Q04DX003 (ip), vehicle: water): 98 % of control
- T/C (dose: 3.6 mg/kg/injection, schedule: Q01DX001 (ip), vehicle: water): 117 % of control
- T/C (dose: 4.8 mg/kg/injection, schedule: Q04DX003 (ip), vehicle: water): 94 % of control and 113 % of control
- T/C (dose: 5.0 mg/kg/injection, schedule: Q01DX001 (ip), vehicle: water): 166 % of control and 170 % of control
- T/C (dose: 6.0 mg/kg/injection, schedule: Q01DX001 (ip), vehicle: water): 104 % of control

Compound: COc1cc(C(=O)OC(C)CN2CCOCC2)cc(OC)c1OC (stereo not given)
- T/C (dose: 3.12 mg/kg/injection, schedule: Q04DX003 (ip), vehicle: saline): 106 % of control
- T/C (dose: 6.25 mg/kg/injection, schedule: Q04DX003 (ip), vehicle: saline): 111 % of control
- T/C (dose: 12.5 mg/kg/injection, schedule: Q01DX009 (ip), vehicle: saline): 100 % of control
- T/C [1]: 106 % of control
- T/C (dose: 25.0 mg/kg/injection, schedule: Q01DX009 (ip), vehicle: saline): 100 % of control
- T/C [2]: 105 % of control
- T/C [3]: 100 % of control
- T/C [4]: 102 % of control
- T/C [5]: 108 % of control
- T/C [6]: 98 % of control
- T/C [7]: 102 % of control
- T/C [8]: 118 % of control
- T/C [9]: 97 % of control

Compound: O=C1c2ccccc2C(=O)c2c(NCCN3CCCCC3)ccc(NCCN3CCCCC3)c21
- T/C (dose: 16.0 mg/kg/injection, schedule: Q01DX009 (ip), vehicle: acid diluted with saline): 107 % of control

Compound: Cc1cccc(Cl)c1NC(=O)Cn1cccc1
- T/C [10]: 108 % of control
- T/C [11]: 108 % of control
- T/C [12]: 118 % of control

Compound: CC(C)CCC1(CCBr)C(=O)NC(=Nc2ccccc2)NC1=O (stereo not given)
- T/C [13]: 86 % of control
- T/C [14]: 106 % of control
- T/C [15]: 96 % of control
- T/C [16]: 96 % of control

Compound: CN(C)CC(C(=O)c1ccc(Br)cc1)C(Br)c1ccccc1 (stereo not given)
- T/C (dose: 5.0 mg/kg/injection, schedule: Q01DX009 (ip), vehicle: saline with Tween-80): 101 % of control
- T/C (dose: 10.0 mg/kg/injection, schedule: Q01DX009 (ip), vehicle: saline with Tween-80): 108 % of control
- T/C (dose: 20.0 mg/kg/injection, schedule: Q01DX009 (ip), vehicle: saline with Tween-80): 101 % of control
- T/C (dose: 40.0 mg/kg/injection, schedule: Q01DX009 (ip), vehicle: saline with Tween-80): 111 % of control

Compound: CCOC(=O)Nc1nccs1
- T/C [13]: 97 % of control
- T/C [14]: 89 % of control
- T/C [15]: 89 % of control
- T/C [16]: 89 % of control

Compound: O=C(O)CCC(=O)Nc1ccccc1C(F)(F)F
- T/C (dose: 12.5 mg/kg/injection, schedule: Q04DX003 (ip), vehicle: saline with Tween-80): 108 % of control
- T/C (dose: 25.0 mg/kg/injection, schedule: Q04DX003 (ip), vehicle: saline with Tween-80): 111 % of control
- T/C [17]: 113 % of control
- T/C [18]: 108 % of control
- T/C [19]: 105 % of control

Compound: CN(C)N=Nc1ccnc2c(I)cccc12
- T/C (dose: 25.2 mg/kg/injection, schedule: Q01DX008 (ip), vehicle: DMSO): 92 % of control
- T/C (dose: 42.0 mg/kg/injection, schedule: Q01DX008 (ip), vehicle: DMSO): 97 % of control
- T/C (dose: 70.0 mg/kg/injection, schedule: Q01DX008 (ip), vehicle: DMSO): 99 % of control
- T/C (dose: 116.7 mg/kg/injection, schedule: Q01DX008 (ip), vehicle: DMSO): 92 % of control

Compound: BrCC(Br)CBr
- T/C [13]: 92 % of control
- T/C [14]: 90 % of control
- T/C [15]: 90 % of control

Compound: CN(C)N=Nc1cn[nH]c1C(N)=O
- T/C [20]: 110 % of control
- T/C [10]: 111 % of control
- T/C [11]: 100 % of control
- T/C [12]: 98 % of control
- T/C [21]: 96 % of control

Compound: CN1N=C(N)c2cn(C3OC(COP(=O)(O)O)C(O)C3O)c3ncnc1c23 (stereo not given)
- T/C (dose: 6.25 mg/kg/injection, schedule: Q01DX009 (ip), vehicle: water): 89 % of control and 92 % of control
- T/C (dose: 12.5 mg/kg/injection, schedule: Q01DX009 (ip), vehicle: water): 90 % of control
- T/C (dose: 25.0 mg/kg/injection, schedule: Q01DX009 (ip), vehicle: water): 93 % of control
- T/C (dose: 50.0 mg/kg/injection, schedule: Q01DX009 (ip), vehicle: water): 96 % of control
- T/C (dose: 100.0 mg/kg/injection, schedule: Q01DX009 (ip), vehicle: water): 88 % of control

Compound: CCN1C=C/C(=C/c2cc3scc(-c4ccccc4)[n+]3c3ccccc23)c2ccccc21
- T/C (dose: 0.08 mg/kg/injection, schedule: Q01DX009 (ip), vehicle: saline): 94 % of control
- T/C (dose: 0.15 mg/kg/injection, schedule: Q01DX009 (ip), vehicle: saline): 94 % of control
- T/C (dose: 0.3 mg/kg/injection, schedule: Q01DX009 (ip), vehicle: saline): 90 % of control
- T/C (dose: 75.0 micrograms/kg/injection, schedule: Q01DX009 (ip), vehicle: Klucel (hydroxypropylcellulose) (HPC)): 103 % of control
- T/C (dose: 150.0 micrograms/kg/injection, schedule: Q01DX009 (ip), vehicle: Klucel (hydroxypropylcellulose) (HPC)): 107 % of control
- T/C (dose: 300.0 micrograms/kg/injection, schedule: Q01DX009 (ip), vehicle: Klucel (hydroxypropylcellulose) (HPC)): 98 % of control
- T/C (dose: 600.0 micrograms/kg/injection, schedule: Q01DX009 (ip), vehicle: Klucel (hydroxypropylcellulose) (HPC)): 95 % of control

Compound: C=CCOC(=O)C1CC(C(=O)OCC=C)C(C(=O)OCC=C)C1C(=O)OCC=C (stereo not given)
- T/C (dose: 50.0 mg/kg/injection, schedule: Q01DX009 (ip), vehicle: other): 96 % of control
- T/C (dose: 100.0 mg/kg/injection, schedule: Q01DX009 (ip), vehicle: other): 105 % of control
- T/C (dose: 200.0 mg/kg/injection, schedule: Q01DX009 (ip), vehicle: other): 98 % of control

Compound: Cc1cc(C)[nH]c(=S)n1
- T/C [3]: 95 % of control
- T/C [5]: 95 % of control
- T/C [7]: 106 % of control

Compound: Nc1ncnc2sc3c(c12)CCCC3
- T/C [12]: 100 % of control
- T/C [21]: 101 % of control
- T/C [22]: 110 % of control

Compound: Cc1nc(C(N)=O)c(=O)[nH]c1C
- T/C [1]: 97 % of control
- T/C [2]: 102 % of control
- T/C [17]: 97 % of control
- T/C [4]: 100 % of control
- T/C [18]: 102 % of control
- T/C [19]: 100 % of control
- T/C (dose: 400.0 mg/kg/injection, schedule: Q04DX003 (ip), vehicle: saline with Tween-80): 104 % of control

Compound: Cl/C=C(\Cl)CCl
- T/C (dose: 6.25 mg/kg/injection, schedule: Q01DX009 (ip), vehicle: saline with Tween-80): 108 % of control
- T/C (dose: 12.5 mg/kg/injection, schedule: Q01DX009 (ip), vehicle: saline with Tween-80): 90 % of control

Compound: CCCCC(C)(C(=O)OCC)C(=O)OCC
- T/C [20]: 108 % of control
- T/C [10]: 101 % of control
- T/C [11]: 102 % of control
- T/C [12]: 101 % of control
- T/C [21]: 102 % of control
- T/C [22]: 94 % of control

Compound: NC(Cc1cnc[nH]1)C(=O)O (stereo not given) (tested in a mixture with another compound)
- T/C [5]: 106 % of control
- T/C [6]: 104 % of control
- T/C [7]: 100 % of control
- T/C [8]: 90 % of control
- T/C (dose: 400.0 mg/kg/injection, schedule: Q01DX009 (ip), vehicle: saline): 100 % of control
- T/C [9]: 102 % of control

Compound: CC(=O)CC(=O)NC1CCCC1
- T/C [12]: 96 % of control
- T/C [21]: 96 % of control
- T/C [22]: 107 % of control

Compound: ClC[P+](c1ccccc1)(c1ccccc1)c1ccccc1
- T/C (dose: 2.5 mg/kg/injection, schedule: Q01DX009 (ip), vehicle: saline): 120 % of control
- T/C (dose: 5.0 mg/kg/injection, schedule: Q01DX009 (ip), vehicle: saline): 106 % of control
- T/C (dose: 10.0 mg/kg/injection, schedule: Q01DX009 (ip), vehicle: saline): 101 % of control

— PubChem BioAssay AID192 (DTP/NCI, 2004)
